Publication PMC3388080 (PLoS ONE, 2012)

Columns and labels:
Male Wistar rats = assay: Spontaneous locomotor activity during the active phase; assay type: in vivo, rat; details: for spontaneous LMA: vehicle 6097±536; for effect on spontaneous LMA (in words): 3, 10, 30 mg/kg ip at ZT15, almorexant significant only at 30 mg/kg, SB-334867 at 10 and 30 mg/kg
Protocol: Locomotor activity (LMA) was evaluated at F. Hoffmann-La Roche as described previously. Male Wistar rats were placed for 2 weeks in a 12 h light/12 h dark cycle with light onset at 22∶00 (ZT0). […] Spontaneous LMA was recorded for a period of 30 min. At the end of the experiment, the brain and plasma were collected for determination of the drug exposure and brain/plasma concentration ratio.
Horizontal locomotor activity was recorded for a period of 30 min. Numbers on the X-axes represent intraperitoneal doses in mg/kg.***p<0.001, **p<0.01, *p<0.05 vs. Veh (one-way ANOVA followed by Dunnett’s analysis). All data are mean±SEM (n = 8 per group).

[1] = Pharmacokinetics after single i.v. or p.o. bolus in Wistar rat
Protocol: (§1) Pharmacokinetic analyses were performed at F. Hoffmann-La Roche as described in supporting Materials and Methods S1.
(§2) Cmax, maximum concentration; Tmax, time at which maximum concentration was observed; AUC, area under the plasma concentration vs. time curve; CL, clearance; Vss, volume of distribution at steady state; T1/2, terminal half-life; F, bioavailability; Fu, Fraction unbound. Plasma values are mean, n=2.

[2] = Plasma protein binding (free fraction), rat plasma
Protocol: as §1, §2

[3] = Stability in human plasma
Protocol: as §1

Stability in rat plasma = assay: Stability in rat plasma
Protocol: as §1

[4] = Plasma protein binding (free fraction), human plasma
Protocol: as §1

[5] = i.v., dose 2.40 / 5.18 / 12.10 mg/kg
[6] = p.o., dose 6.35 / 8.75 / 18.16 mg/kg

Compound: Cc1nc2ccc(NC(=O)Nc3ccnc4cccnc34)cc2o1.Cl [SB-334867, 1-(2-methylbenzoxazol-6-yl)-3-[1], [5]naphthyridin-4-yl-urea hydrochloride]
- spontaneous LMA (Male Wistar rats; 10 mg/kg ip at ZT15, 30 min recording): 3509±383
- spontaneous LMA (Male Wistar rats; 30 mg/kg ip at ZT15, 30 min recording): 2626±341
- effect on spontaneous LMA (in words) (Male Wistar rats): dose-dependently reduced spontaneous LMA
- CL ([1]; i.v.): 5.40 mL/min/kg
- Vss ([1]; i.v.): 0.57 L/kg
- AUC/Dose [1, 5]: 3118.90 ng/h/mL
- T1/2 (terminal half-life) [1, 5]: 1.21 h
- Tmax [1, 5]: 0.00 h
- Cmax/Dose ([1]; i.v., dose almorexant 2.40, SB-334867 5.18, SB-408124 12.10 mg/kg): 1937.40 ng/mL
- F (bioavailability) ([1]; p.o.): 45.70%
- AUC/Dose [1, 6]: 1423.50 ng/h/mL
- T1/2 (terminal half-life) [1, 6]: 3.10 h
- Tmax [1, 6]: 1.50 h
- Cmax/Dose ([1]; p.o., dose almorexant 6.35, SB-334867 8.75, SB-408124 18.16 mg/kg): 331.10 ng/mL
- Vss (in words) ([1]; rat): medium
- oral bioavailability (in words) ([1]; rat): medium
- systemic plasma clearance (in words) ([1]; rat): low
- Fu (fraction unbound / free fraction) [2]: 0.8%
- stability in plasma ([3]; 1 h): 95%
- stability in plasma ([3]; 4 h): 93%
- stability in plasma (Stability in rat plasma; 1 h): 104%
- stability in plasma (Stability in rat plasma; 4 h): 110%
- free fraction [4]: 1.3%

Compound: CNC(=O)[C@@H](c1ccccc1)N1CCc2cc(OC)c(OC)cc2[C@@H]1CCc1ccc(C(F)(F)F)cc1 [almorexant, (2R)-2-[(1S)-6,7-Dimethoxy-1-[2-(4-trifluoromethyl-phenyl)-ethyl]-3,4-dihydro-1H-isoquinolin-2-yl]-N-methyl-2-phenyl-acetamide]
- effect on spontaneous LMA (in words) (Male Wistar rats): dose-dependently reduced LMA
- AUC/Dose ([1]; Wistar, rat, in vivo, iv): 193.70 ng/h/mL
- Tmax ([1]; Wistar, rat, in vivo, iv): 0 h
- Vd ([1]; Wistar, rat, in vivo, iv): 9.45 L/kg
- clearance ([1]; Wistar, rat, in vivo, iv): 87.1 mL/min/kg
- half-life ([1]; Wistar, rat, in vivo, iv): 2.58 h
- Cmax/Dose ([1]; Wistar, rat, in vivo, iv, 12.1 mg/kg): 238.20 ng/mL
- AUC/Dose ([1]; Wistar, rat, in vivo, po): 28.00 ng/h/mL
- Tmax ([1]; Wistar, rat, in vivo, po): 0.5 h
- bioavailability ([1]; Wistar, rat, in vivo, po): 14.4%
- half-life ([1]; Wistar, rat, in vivo, po): 1.29 h
- Cmax/Dose ([1]; Wistar, rat, in vivo, po, 18.16 mg/kg): 12.90 ng/mL
- Vss (in words) ([1]; rat, in vivo): high
- systemic plasma clearance (in words) ([1]; rat, in vivo): high
- oral bioavailability (in words) ([1]; rat, in vivo, po): low
- fraction unbound ([2]; rat, plasma): < 0.087
- stability in plasma ([3]; 2 h): 90.0%
- stability in plasma (Stability in rat plasma; 2 h): 95.0%
- fraction unbound ([4]; human, plasma): < 0.037
